Source: article PMC4657098, “A Review of the Updated Pharmacophore for the Alpha 5 GABA(A) Benzodiazepine Receptor Model” (International Journal of Medicinal Chemistry, 2015)
pKi: −log10 of the molar value. Where two headings read alike, the source gives them in different places.

Legend:
Design in all cases: expressed in transfected cells
α5β3γ2 GABAA/BzR = α5β3γ2 GABAA/BzR (Homo sapiens, UniProt P18507+P31644); test: Competition binding to HEK cell membranes, α5β3γ2; details: read-out: Ki α5
α1β3γ2 GABAA/BzR = α1β3γ2 GABAA/BzR (Homo sapiens, UniProt P14867+P18507); test: Competition binding to HEK cell membranes, α1β3γ2; details: read-out: Ki α1
α2β3γ2 GABAA/BzR = α2β3γ2 GABAA/BzR (Homo sapiens, UniProt P18507+P47869); test: Competition binding to HEK cell membranes, α2β3γ2; details: read-out: Ki α2
α6β3γ2 GABAA/BzR = α6β3γ2 GABAA/BzR (Homo sapiens, UniProt P18507+Q16445); test: Competition binding to HEK cell membranes, α6β3γ2
α3β3γ2 GABAA/BzR = α3β3γ2 GABAA/BzR (Homo sapiens, UniProt P18507+P34903); test: Competition binding to HEK cell membranes, α3β3γ2; details: read-out: Ki α3

SMILES | pKi (α5β3γ2 GABAA/BzR) | pKi (α1β3γ2 GABAA/BzR) | pKi (α2β3γ2 GABAA/BzR) | pKi (α6β3γ2 GABAA/BzR; read-out: Ki α6) | pKi (α3β3γ2 GABAA/BzR) | pKi (α6β3γ2 GABAA/BzR; Ki α6)
C[Si](C)(C)C#Cc1ccc2c(c1)C(=O)N1CCC[C@H]1c1c(C(=O)OCC(F)(F)F)ncn1-2 [JYI-11] | 6.19 | 5.30 | 5.30 | 8.40 |  | 
C=Cc1ccc2c(c1)C(=O)N1CCC[C@H]1c1c(C(=O)OCC(F)(F)F)ncn1-2 [JYI-12] | 8.35 | 7.04 | 7.41 | 8.17 |  | 
O=C(OCC(F)(F)F)c1ncn2c1C1CCCN1C(=O)c1cc(-c3ccco3)ccc1-2 (centres unmarked) [JYI-13] | 7.80 | 5.30 | 7.20 | 8.08 |  | 
O=C(OCC(F)(F)F)c1ncn2c1[C@@H]1CCCN1C(=O)c1ccccc1-2 [JYI-14] | 7.89 | 7.49 | 7.60 | 6.25 |  | 
C#Cc1ccc2c(c1)C(=O)N1CCC[C@H]1c1c(C(=O)OCC(F)(F)F)ncn1-2 [JYI-15] | 8.32 | 6.69 | 6.09 | 7.66 |  | 
CC(C)(C)OC(=O)c1ncn2c1[C@@H]1CCCN1C(=O)c1cc(-c3cccs3)ccc1-2 [JYI-19] | 7.47 | 8.66 | 6.69 | 7.90 |  | 
CCOC(=O)c1ncn2c1CN=C(c1ccccc1F)c1cc(Br)ccc1-2 [JYI-32] | 8.53 | 8.51 | 8.30 | 7.28 |  | 
O=C1CN=C(c2ccccc2F)c2cc(Br)ccc2N1 [JYI-42] | 9.59 | 9.59 | 9.84 |  | 9.56 | 
O=C(O)c1ncn2c1CN=C(c1ccccc1F)c1cc(Br)ccc1-2 [JYI-47] | 9.37 | 8.56 | 8.64 |  | 9.29 | 
CCOC(=O)c1ncn2c1CN=C(c1ccccc1F)c1cc(-c3ccco3)ccc1-2 [JYI-48] | 7.50 | 7.12 | 7.04 |  | 7.89 | 
O=C(OCC(F)(F)F)c1ncn2c1CN=C(c1ccccc1F)c1cc(Br)ccc1-2 [JYI-49] | 8.17 | 8.73 | 8.62 | 5.47 |  | 
C[Si](C)(C)C#Cc1ccc2c(c1)C(c1ccccc1F)=NCC(=O)N2 [JYI-55] | 7.61 | 7.38 |  |  | 9.30 | 
Cc1nnc2n1-c1ccc(Br)cc1C(c1ccccc1F)=NC2 [JYI-57] | 10.44 | 10.12 | 10.12 |  | 9.88 | 
C#Cc1ccc2c(c1)C(c1ccccc1F)=NCc1c(C(=O)OCC(F)(F)F)ncn1-2 [JYI-59 (C22H13N3O2F4)] |  |  | 8.59 | 5.30 |  | 
C#Cc1ccc2c(c1)C(c1ccccc1F)=NCC(=O)N2 [JYI-60 (C17H11N2OF)] | 8.77 |  |  | 5.30 | 8.37 | 
C#Cc1ccc2c(c1)C(c1ccccc1F)=NCc1nnc(C)n1-2 [JYI-70] | 9.25 | 8.20 | 8.68 | 5.30 |  | 
Cc1nnc2n1-c1ccc(C#C[Si](C)(C)C)cc1C(c1ccccc1F)=NC2 [JYI-72] | 7.94 | 7.31 | 7.73 |  |  | 
CCOC(=O)c1ncc2[nH]c3cc(OC)c(OC)cc3c2c1CC [MSR-I-032] |  | 8.21 | 7.73 | 7.13 | 8.40 | 
CN(C)C=C1N=C2CN=C(c3ccccc3)c3cc(Br)ccc3N2C1=O [PS-1-34B] |  |  | 8.38 |  | 8.41 | 
CN1CCN(C=C2N=C3CN=C(c4ccccc4)c4cc(Br)ccc4N3C2=O)CC1 [PS-1-35] |  |  | 7.80 |  | 7.61 | 
COc1ccc(-n2nc3c4cc(Cl)ccc4[nH]cc-3c2=O)cc1 [PZII-028] | 9.49 | 9.70 |  | 8.72 | 9.70 | 
COc1ccc(-n2nc3c4ccc(OC)cc4[nH]cc-3c2=O)cc1 [PZII-029] | 9.28 | 9.47 |  | 8.00 | 9.10 | 
C#Cc1ccc2c(c1)C(c1ccccc1F)=N[C@@H](C)c1c(C(=O)OCC)ncn1-2 [SH-O53-S-CH3-2′F] |  |  |  |  |  | 5.30
COCc1ncn2c1CN(C)C(=O)c1cc(Cl)ccc1-2 [SH-TSC-1] | 8.21 | 6.44 | 6.74 |  | 6.48 | 
CC(C)(C)OC(=O)c1cc2c(cn1)[nH]c1ccccc12 [SH-TSC-2] | 7.16 |  | 10.38 |  | 10.46 | 
C#Cc1ccc2[nH]c3cnc(C(=O)OC(C)(C)C)cc3c2c1 [WY-TSC-4] | 7.29 |  |  |  | 8.79 | 
Cc1nnc2n1-c1ccc(Br)cc1C(c1ccccc1)=NC2 [XLi268] | 9.20 | 8.55 | 9.16 |  |  | 
C#Cc1ccc2c(c1)C(c1ccccc1Cl)=NCC(=O)N2C [XLi352] | 8.71 | 8.81 | 9.00 |  |  | 
